The values that follow come from patent US20200392158A1, “INHIBITORS OF LEUCINE RICH REPEAT KINASE 2” (GLAXOSMITHKLINE INTELLECTUAL PROPERTY DEVELOPMENT LIMITED, priority 2017, published 2020).

For orientation: IC50 means the concentration at which inhibition is half-maximal.

This assay deals with T1, full length G2019 human LRRK2 (Homo sapiens, UniProt Q5S007, R50H).
T1 construct: made in house; host or cells: HEK293 6E cells transduced with BacMam virus (virus generated in Sf9 cells)
Briefly: Full length G2019 human LRRK2 inhibition mass spectrometry assay. It is filed as biochemical. The settings on record: LRRKtide to phospho-LRRKtide conversion, RapidFire MS, 2 mM ATP. Summed up:
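Inhibition taken as reduced LRRKtide phosphorylation, quantified by RapidFire-coupled triple-quadrupole MS as product/(product+substrate) peak area. Reaction: 2 mM ATP, 25 μM peptide, ~25 nM full-length G2019 Flag-LRRK2, Hepes pH 7.2 buffer, room temperature for 1 h. 11-point 1-in-4 dilutions from 100 μM; logistic fit gives IC50, reported as pIC50.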

Structures are written as SMILES.

T1 sequence (Q5S007 with tags, fused parts or gaps R50H): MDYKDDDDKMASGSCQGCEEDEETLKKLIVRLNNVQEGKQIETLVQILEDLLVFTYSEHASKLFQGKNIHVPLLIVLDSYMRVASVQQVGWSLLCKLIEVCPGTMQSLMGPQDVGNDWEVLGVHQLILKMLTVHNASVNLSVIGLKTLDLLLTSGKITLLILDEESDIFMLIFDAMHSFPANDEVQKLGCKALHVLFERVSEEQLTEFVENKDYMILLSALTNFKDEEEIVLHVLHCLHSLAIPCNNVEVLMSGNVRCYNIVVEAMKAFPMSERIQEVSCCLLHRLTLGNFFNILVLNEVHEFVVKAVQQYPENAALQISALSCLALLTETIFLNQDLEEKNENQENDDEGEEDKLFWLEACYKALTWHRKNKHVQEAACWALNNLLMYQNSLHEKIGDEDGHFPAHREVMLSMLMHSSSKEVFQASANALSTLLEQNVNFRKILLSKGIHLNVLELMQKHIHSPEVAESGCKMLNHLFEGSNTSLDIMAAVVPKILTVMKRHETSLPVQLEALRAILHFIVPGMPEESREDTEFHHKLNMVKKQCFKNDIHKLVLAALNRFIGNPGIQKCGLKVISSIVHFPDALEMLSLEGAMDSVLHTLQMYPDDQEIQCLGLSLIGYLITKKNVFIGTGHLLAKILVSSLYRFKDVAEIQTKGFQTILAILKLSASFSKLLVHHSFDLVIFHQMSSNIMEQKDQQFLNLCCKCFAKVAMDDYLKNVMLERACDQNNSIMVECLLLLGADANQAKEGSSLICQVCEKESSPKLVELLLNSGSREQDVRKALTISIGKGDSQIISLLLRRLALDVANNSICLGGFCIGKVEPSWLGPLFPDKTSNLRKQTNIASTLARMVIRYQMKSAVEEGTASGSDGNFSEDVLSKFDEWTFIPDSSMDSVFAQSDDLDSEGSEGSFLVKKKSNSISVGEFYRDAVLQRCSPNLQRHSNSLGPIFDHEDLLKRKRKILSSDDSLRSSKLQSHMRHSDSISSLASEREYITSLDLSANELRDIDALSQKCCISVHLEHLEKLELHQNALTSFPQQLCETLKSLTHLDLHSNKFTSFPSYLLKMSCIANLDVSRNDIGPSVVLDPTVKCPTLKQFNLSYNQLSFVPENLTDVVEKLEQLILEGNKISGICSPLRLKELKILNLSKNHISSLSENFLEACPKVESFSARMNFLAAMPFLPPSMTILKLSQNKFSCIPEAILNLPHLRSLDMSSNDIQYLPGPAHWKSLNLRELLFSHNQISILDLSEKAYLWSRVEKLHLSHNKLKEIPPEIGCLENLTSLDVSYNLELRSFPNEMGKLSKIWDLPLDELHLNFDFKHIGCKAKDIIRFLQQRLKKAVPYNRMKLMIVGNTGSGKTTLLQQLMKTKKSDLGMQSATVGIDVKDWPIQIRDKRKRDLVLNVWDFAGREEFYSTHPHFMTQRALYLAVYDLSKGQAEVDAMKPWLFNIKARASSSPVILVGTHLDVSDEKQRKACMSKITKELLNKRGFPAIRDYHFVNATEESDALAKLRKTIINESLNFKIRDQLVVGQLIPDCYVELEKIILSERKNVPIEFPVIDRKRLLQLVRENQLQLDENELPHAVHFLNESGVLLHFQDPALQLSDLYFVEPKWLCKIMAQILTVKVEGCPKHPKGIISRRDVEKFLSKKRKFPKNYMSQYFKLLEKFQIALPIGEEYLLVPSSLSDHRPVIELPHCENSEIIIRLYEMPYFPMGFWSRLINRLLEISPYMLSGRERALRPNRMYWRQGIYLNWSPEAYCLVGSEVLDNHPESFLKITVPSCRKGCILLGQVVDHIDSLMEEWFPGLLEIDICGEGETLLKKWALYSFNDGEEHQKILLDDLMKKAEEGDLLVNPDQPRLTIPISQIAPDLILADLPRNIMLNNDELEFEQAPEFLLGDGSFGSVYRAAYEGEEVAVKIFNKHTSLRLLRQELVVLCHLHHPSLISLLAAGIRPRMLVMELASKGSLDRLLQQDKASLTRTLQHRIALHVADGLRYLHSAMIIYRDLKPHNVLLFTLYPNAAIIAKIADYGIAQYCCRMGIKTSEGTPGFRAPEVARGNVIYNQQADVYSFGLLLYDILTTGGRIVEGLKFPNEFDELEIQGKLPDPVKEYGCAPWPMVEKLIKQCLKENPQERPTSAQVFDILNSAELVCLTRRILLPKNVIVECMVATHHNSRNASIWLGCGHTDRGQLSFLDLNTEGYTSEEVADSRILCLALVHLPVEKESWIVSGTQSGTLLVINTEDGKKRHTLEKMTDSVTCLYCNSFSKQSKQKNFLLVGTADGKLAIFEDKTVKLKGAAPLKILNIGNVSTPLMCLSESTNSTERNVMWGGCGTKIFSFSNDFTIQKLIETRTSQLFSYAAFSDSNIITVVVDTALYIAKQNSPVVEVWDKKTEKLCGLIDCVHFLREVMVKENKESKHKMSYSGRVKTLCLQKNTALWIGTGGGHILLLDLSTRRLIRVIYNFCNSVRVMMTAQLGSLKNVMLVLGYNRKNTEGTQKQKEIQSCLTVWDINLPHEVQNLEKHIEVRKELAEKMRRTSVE

The compound `CCC1CCOc2nn(C3COC3)c(C)c2Nc2ncc(Cl)c(n2)N1` (single isomer, unassigned) [E320, 14-Chloro-11-ethyl-4-methyl-5-(oxetan-3-yl)-8-oxa-2,5,6,12,16,17-hexaazatricyclo[11.3.1.0^3,7]heptadeca-1(16), 3,6,13(17),14-pentaene] gave a 50% inhibitory concentration (IC50) not above 100 nM.

Compound `COCC1CCOc2nn(C3CCOCC3F)c(C)c2Nc2ncc(Cl)c(n2)N1` (single isomer, unassigned) [E354, 14-Chloro-5-(3-fluorooxan-4-yl)-11-(methoxymethyl)-4-methyl-8-oxa-2,5,6,12,16,17-hexaazatricyclo [11.3. 1.0^3,7]heptadeca-1(16),3,6,13(17),14-pentaene] gave a concentration for half-maximal inhibition (IC50) not above 100 nM.

Compound `Cc1c2c(nn1C1CCOC1)OCCCNc1nc(ncc1C(F)(F)F)N2` (single isomer, unassigned) [E128, 4-methyl-5-(oxolan-3-yl)-14-(trifluoromethyl)-8-oxa-2,5,6,12,16,17-hexaazatricyclo[11.3.1.0^3,7]heptadeca-1(16),3,6,13(17),14-pentaene] showed a half-maximal inhibitory concentration (IC50) not above 100 nM.

On to `Cc1c2c(nn1CCN1CCC(F)C1)OCCC(C)Nc1nc(ncc1Cl)N2` (single isomer, unassigned) [E216, 14-Chloro-5-[2-(3-fluoropyrrolidin-1-yl)ethyl]-4,11-dimethyl-8-oxa-2,5,6,12,16,17-hexaazatricyclo [11.3.1.0^3,7] heptadeca-1(16),3,6,13(17),14-pentaene], for which the half-inhibitory concentration (IC50) was 100000 nM.

The compound `Cc1c2c(nn1C1CCC(N3C[C@H]4C[C@@H]3CO4)CC1)OCCC(C)Nc1nc(ncc1Cl)N2` (single isomer, unassigned) [E56] showed a 50% inhibitory concentration (IC50) not above 10000 nM.

For `Cc1c2c(nn1C1CCC(N3CCC(F)C3)CC1)OCCCNc1nc(ncc1Cl)N2` (single isomer, unassigned) [E155, 14-Chloro-5-[4-(3-fluoropyrrolidin-1-yl)cyclohexyl]-4-methyl-8-oxa-2,5,6,12,16,17-hexaazatricyclo[11.3.1. 0^3,7]heptadeca-1(16),3,6,13(17),14-pentaene], the IC50 was not above 100 nM.

Turning to `CCN1CCCOc2nn(C3CCOCC3)c(C)c2Nc2ncc(Cl)c1n2` [E360, 14-Chloro-12-ethyl-4-methyl-5-(oxan-4-yl)-8-oxa-2,5,6,12,16,17-hexaazatricyclo[11.3.1.0^3,7]heptadeca-1(16),3,6,13(17),14-pentaene], the IC50 is not above 10000 nM.

In turn, `Cc1c2c(nn1C1CCOCC1(C)C)OCC[C@@H](C)Nc1nc(ncc1Cl)N2` (single isomer, unassigned) [E423] had an IC50 not above 100 nM.

For the compound `COC1CNc2nc(ncc2Cl)Nc2c(nn(C3CC4CCC(C3)O4)c2C)OC1` (single isomer, unassigned) [E246, 14-Chloro-10-methoxy-4-methyl-5-{8-oxabicyclo[3.2.1]octan-3-yl}-8-oxa-2,5,6,12,16,17-hexaazatricyclo [11.3.1.0^3,7]heptadeca-1(16),3,6,13(17),14-pentaene], the IC50 is not above 10000 nM.

`Cc1c2c(nn1C1CCOCC1F)OCCCNc1nc(ncc1Cl)N2` (single isomer, unassigned) [E236, 14-Chloro-5-(3-fluorooxan-4-yl)-4-methyl-8-oxa-2,5,6,12,16,17-hexaazatricyclo[11.3.1.0^3,7]heptadeca-1(16),3,6,13 (17),14-pentaene] had an IC50 not above 100 nM.

The compound `Cc1c2c(nn1C1CN(C3CCCOC3)C1)OC[C@@H](F)[C@@H](C)Nc1nc(ncc1Cl)N2` (stereo partly drawn) [E390, (10S, 11R)-14-Chloro-10-fluoro-4,11-dimethyl-5-[1-(oxan-3-yl)azetidin-3-yl]-8-oxa-2,5,6,12,16,17-hexaazatricyclo [11.3.1.0^3,7]heptadeca-1(16)53,6,13(17),14-pentaene] showed an IC50 not above 100 nM.

For `Cc1c2c(nn1C1CCOCC1)OCCC(C)(C)Nc1nc(ncc1Cl)N2` [E299, 14-Chloro-4,11,11-trimethyl-5-(oxan-4-yl)-8-oxa-2,5,6,12,16,17-hexaazatricyclo[11.3.1.0^3,7]heptadeca-1(16),3,6,13(17),14-pentaene], the half-inhibitory concentration (IC50) is not above 10000 nM.

On to `COCC1CCOc2nn(C3CCOCC3F)c(C)c2Nc2ncc(Cl)c(n2)N1` (single isomer, unassigned) [E355, 14-Chloro-5-(3-fluorooxan-4-yl)-11-(methoxymethyl)-4-methyl-8-oxa-2,5,6,12,16,17-hexaazatricyclo [11.3. 1.0^3,7]heptadeca-1(16),3,6,13(17),14-pentaene], for which the half-inhibitory concentration (IC50) is not above 100 nM.

Consider `Cc1c2c(nn1C1CCCN(C3COC3)C1)OCC[C@@H](C)Nc1nc(ncc1Cl)N2` (single isomer, unassigned) [E68], for which the half-maximal inhibitory concentration (IC50) is not above 100 nM.

In turn, `Cc1c2c(nn1C1CCC(N3C[C@@H]4C[C@H]3CO4)CC1)OCCC(C)Nc1nc(ncc1Cl)N2` (single isomer, unassigned) [E105] showed a half-maximal inhibitory concentration (IC50) not above 100 nM.

`Cc1c2c(nn1C1CC(C)OC(C)C1)OCCC(C)Nc1nc(ncc1Cl)N2` (single isomer, unassigned) [E197, 14-Chloro-5-(2,6-dimethyloxan-4-yl)-4,11-dimethyl-8-oxa-2,5,6,12,16,17-hexaazatricyclo[11.3.1.0^3,7] heptadeca-1(16),3,6,13(17),14-pentaene] gave a 50% inhibitory concentration (IC50) not above 10000 nM.

`COCCN1CCC(n2nc3c(c2C)Nc2ncc(Cl)c(n2)NCCCO3)C(F)C1` (single isomer, unassigned) [E60, trans-14-chloro-5-[3-fluoro-1-(2-methoxyethyl)piperidin-4-yl]-4-methyl-8-oxa-2,5,6,12,16,17-hexaazatricyclo[11.3.1.0^3,7]heptadeca 1(16),3,6,13(17),14-pentaene] gave a half-maximal inhibitory concentration (IC50) not above 100 nM.

`COC1CNc2nc(ncc2Cl)Nc2c(nn(C3CCC(C(F)(F)F)CC3)c2C)OC1` (single isomer, unassigned) [E279, 14-Chloro-10-methoxy-4-methyl-5-[4-(trifluoromethyl)cyclohexyl]-8-oxa-2,5,6,12,16,17-hexaazatricyclo [11.3. 1.0^3,7]heptadeca-1(16),3,6,13(17),14-pentaene]: the IC50 was not above 10000 nM.

Compound `Cc1c2c(nn1C1CC(N3CCC(F)(F)C3)C1)OCCC(C)Nc1nc(ncc1Cl)N2` (single isomer, unassigned) [E316, 14-Chloro-5-[3-(3,3-difluoropyrrolidin-1-yl)cyclobutyl]-4,11-dimethyl-8-oxa-2,5,6,12,16,17-hexaazatricyclo [11.3.1.0^3,7]-heptadeca-1(16),3,6,13(17),14-pentaene] had an IC50 not above 100 nM.

`COC1CNc2nc(ncc2C(F)(F)F)Nc2c(nn(C3CCCOC3)c2C)OC1` (single isomer, unassigned) [E228, 10-Methoxy-4-methyl-5-(oxan-3-yl)-14-(trifluoromethyl)-8-oxa-2,5,6,12,16,17-hexaazatricyclo [11.3.1.0^3,7] heptadeca-1(17),3,6,13,15-pentaene] showed an IC50 not above 10000 nM.

Compound `Cc1c2c(nn1C1CCOCC1F)OCCC(C)Nc1nc(ncc1Cl)N2` (single isomer, unassigned) [E26, 14-chloro-5-(3-fluorooxan-4-yl)-4,11-dimethyl-8-oxa-2,5,6,12,16,17-hexaazatricyclo [11.3.1.0^3,7]heptadeca-1(17),3,6,13,15-pentaene] had an IC50 not above 10000 nM.

The compound `Cc1c2c(nn1C1CCOCC1(F)F)OCCCNc1nc(ncc1Cl)N2` (single isomer, unassigned) [E414] showed an IC50 not above 100 nM.

For the compound `Cc1c2c(nn1C1CCOCC1)OCC(C)C(C)Nc1nc(ncc1Cl)N2` (single isomer, unassigned) [E31, 14-chloro-4,10,11-trimethyl-5-(oxan-4-yl)-8-oxa-2,5,6,12,16,17-hexaazatricyclo [11.3.1.0^3,7]heptadeca-1(16),3,6,13(17),14-pentaene], the IC50 was not above 100 nM.

As for `Cc1c2c(nn1CCN1C[C@H]3C[C@@H]1CO3)OCCC(C)Nc1nc(ncc1Cl)N2` (single isomer, unassigned) [E211], the IC50 is not above 10000 nM.

Compound `Cc1c2c(nn1C1CC(N3CCC(F)(F)C3)C1)OCCC(C)Nc1nc(ncc1Cl)N2` (single isomer, unassigned) [E315, 14-Chloro-5-[3-(3,3-difluoropyrrolidin-1-yl)cyclobutyl]-4,11-dimethyl-8-oxa-2,5,6,12,16,17-hexaazatricyclo [11.3.1.0^3,7]-heptadeca-1(16),3,6,13(17),14-pentaene] showed an IC50 not above 10000 nM.

In turn, `COCC1CCOc2nn(C3CCOCC3F)c(C)c2Nc2ncc(Cl)c(n2)N1` (single isomer, unassigned) [E358, 14-Chloro-5-(3-fluorooxan-4-yl)-11-(methoxymethyl)-4-methyl-8-oxa-2,5,6,12,16,17-hexaazatricyclo [11.3. 1.0^3,7]heptadeca-1(16),3,6,13(17),14-pentaene] showed a concentration for half-maximal inhibition (IC50) not above 100 nM.

With `Cc1c2c(nn1C1CCOCC1)OCCC(C)Nc1nc(ncc1Br)N2` (single isomer, unassigned) [E29, 14-bromo-4,11-dimethyl-5-(oxan-4-yl)-8-oxa-2,5,6,12,16,17-hexaaza tricyclo[11.3.1.0^3,7]heptadeca-1(16),3,6,13(17),14-pentaene], the 50% inhibitory concentration (IC50) is not above 10000 nM.
